Test results reported in article PMC4874602 (ACS Infectious Diseases, 2016).
Values joined by “and” are separate entries in the source; they are usually repeats but may differ in a detail not shown here. Equal entries are not always repeated. Where two headings read alike, the source gives them in different places.

Experiments:
[1] = tested on: M. tuberculosis Erdman; type: in vivo, Mycobacterium tuberculosis; details: BALB/c, 4 weeks of treatment
[2] = in vivo; details: BALB/c, mouse, po; for half-life: t1/2, BALB/c
[3] = in vivo; details: BALB/c and C3HeB/FeJ, mouse
[4] = in vivo; details: C3HeB/FeJ, mouse, po; for half-life: t1/2, C3HeB/FeJ
[5] = C3HeB/FeJ; for AUC168h: single 25 mg/kg oral dose of BDQ; for AUC8h: single 150 mg/kg oral dose of PZA
[6] = tested on: M. tuberculosis Erdman; type: in vivo, Mycobacterium tuberculosis
[7] = BALB/c; for AUC168h: single 25 mg/kg oral dose of BDQ; for AUC8h: single 150 mg/kg oral dose of PZA
[8] = tested on: THP-1 cells; details: 30 min exposure, 1 mM PZA, 0.4 mM POA
[9] = 25 mg/kg, AUCUL/AUCplasma, uninvolved lung, single 25 mg/kg oral dose of BDQ
[10] = 25 mg/kg, AUCWL/AUCplasma, whole lung, single 25 mg/kg oral dose of BDQ
[11] = 25 mg/kg, uninvolved lung, single 25 mg/kg oral dose of BDQ
[12] = 25 mg/kg, whole lung, single 25 mg/kg oral dose of BDQ
[13] = 25 mg/kg, lesion (type III), single 25 mg/kg oral dose of BDQ
[14] = 25 mg/kg, plasma, single 25 mg/kg oral dose of BDQ
[15] = 25 mg/kg, lesion (type I), single 25 mg/kg oral dose of BDQ
[16] = C3HeB/FeJ less-responsive subpopulation, BDQ 10 mg/kg
[17] = 150 mg/kg, AUCUL/AUCplasma, uninvolved lung, single 150 mg/kg oral dose of PZA
[18] = 150 mg/kg, AUCWL/AUCplasma, whole lung, single 150 mg/kg oral dose of PZA
[19] = 150 mg/kg, plasma, single 150 mg/kg oral dose of PZA
[20] = 150 mg/kg, uninvolved lung, single 150 mg/kg oral dose of PZA
[21] = 150 mg/kg, whole lung, single 150 mg/kg oral dose of PZA
[22] = 150 mg/kg, lesion (type III), single 150 mg/kg oral dose of PZA
[23] = 150 mg/kg, plasma, single 150 mg/kg oral dose of PZA, 2.5–8 h terminal
[24] = 150 mg/kg, lesion (type I), single 150 mg/kg oral dose of PZA

**Q.** Which results are given for COc1nc2ccc(Br)cc2cc1[C@@H](c1ccccc1)[C@@](O)(CCN(C)C)c1cccc2ccccc12 [BDQ, bedaquiline]?
**A.** log10 CFU reduction in lungs ([1]; BDQ 10 mg/kg oral gavage): 3.1 log10 CFU; log10 CFU reduction in lungs ([1]; BDQ 25 mg/kg oral gavage): 4.1 log10 CFU; AUC(0-t) ([2]; 25 mg/kg): 33700 ng·h/mL; Kp ([2]; 25 mg/kg, AUCLes/AUCplasma, lesion (type III), single 25 mg/kg oral dose of BDQ): 28.2; Kp [2, 9]: 28.4; Kp [2, 10]: 20.6; Cmax ([2]; 25 mg/kg, lesion (cellular non-necrotizing, type III), single 25 mg/kg oral dose of BDQ): 31700 ng/g; Cmax [2, 11]: 36000 ng/g; Cmax [2, 12]: 22100 ng/g; half-life [2, 13]: 5130 min; half-life [2, 11]: 4040 min; half-life [2, 12]: 4470 min; Tmax [2, 13]: 480 min; Tmax [2, 12]: 480 min; Tmax ([3]; 25 mg/kg): 3 h; AUC(0-t) ([4]; 25 mg/kg): 35900 ng·h/mL; Kp ([4]; 25 mg/kg, AUCLes/AUCplasma, lesion (type I), single 25 mg/kg oral dose of BDQ): 10.8; Kp [4, 9]: 18.2; Kp [4, 10]: 20.6; Cmax ([4]; 25 mg/kg, lesion (caseous necrotic granuloma, type I), single 25 mg/kg oral dose of BDQ): 10100 ng/g; Cmax [4, 14]: 2720 ng/mL; Cmax [4, 11]: 23300 ng/g; Cmax [4, 12]: 22900 ng/g; half-life [4, 15]: 6260 min; half-life [4, 11]: 5050 min; half-life [4, 12]: 7800 min; Tmax [4, 15]: 8 h; Tmax [4, 14]: 4 h; Tmax [4, 11]: 8 h; Tmax [4, 12]: 8 h; concentration in dissected caseum of type I granulomas (LC/MS/MS) ([5]; 8 h following a single 25 mg/kg dose of BDQ, preliminary): 974.5 ng/g; AUC168h ([5]; lesion (type I)): 387.1 µg·h/g; AUC168h ([5]; uninvolved lung): 653.9 µg·h/g; AUC168h ([5]; whole lung): 739.42 µg·h/g; activity against the less-responsive subpopulation [6, 16]: only bacteriostatic; rate of decrease in log10 CFU in the lungs between 4 and 8 weeks of treatment [6, 16]: 0.0129 log10 CFU/week; rate of decrease in log10 CFU in the lungs between 4 and 8 weeks of treatment ([6]; C3HeB/FeJ responsive subpopulation, BDQ 10 mg/kg): 0.4392 log10 CFU/week; rate of decrease in log10 CFU in the lungs between 4 and 8 weeks of treatment ([6]; C3HeB/FeJ responsive subpopulation, BDQ 25 mg/kg): 0.3606 log10 CFU/week; AUC168h ([7]; lesion (type III), 25 mg/kg): 949 µg·h/g and 949.6 µg·h/g; AUC168h ([7]; uninvolved lung): 956.6 µg·h/g; AUC168h ([7]; whole lung): 694.0 µg·h/g

**Q.** For O=C(O)c1cnccn1 [POA, pyrazinoic acid], which AUC(0-t) ([2]; 150 mg/kg) is on record?
**A.** 127000 ng·h/mL

**Q.** What about the Kp ([2]; 150 mg/kg, AUCLes/AUCplasma, lesion (type III), single 150 mg/kg oral dose of PZA) of the same compound?
**A.** 0.78

**Q.** What about the Kp [2, 17] of the same compound?
**A.** 0.31

**Q.** And the Kp [2, 18]?
**A.** 0.42

**Q.** What about the Cmax ([2]; 150 mg/kg, lesion (cellular non-necrotizing, type III), single 150 mg/kg oral dose of PZA) of the same compound?
**A.** 25000 ng/g

**Q.** What about the Cmax [2, 19] of the same compound?
**A.** 42500 ng/mL

**Q.** And the Cmax [2, 20]?
**A.** 10300 ng/g

**Q.** What about the Cmax [2, 21] of the same compound?
**A.** 14700 ng/g

**Q.** What about the half-life [2, 22] of the same compound?
**A.** 49.8 min

**Q.** And the half-life [2, 23]?
**A.** 74.4 min

**Q.** And the half-life [2, 20]?
**A.** 14.4 min

**Q.** And the half-life [2, 21]?
**A.** 14.4 min

**Q.** And the Tmax [2, 22]?
**A.** 60 min

**Q.** And the Tmax [2, 19]?
**A.** 30 min

**Q.** And the Tmax [2, 20]?
**A.** 30 min

**Q.** And the Tmax [2, 21]?
**A.** 30 min

**Q.** And the Tmax ([3]; 150 mg/kg)?
**A.** 0.5 to 1 h

**Q.** What about the AUC(0-t) ([4]; 150 mg/kg) of the same compound?
**A.** 58700 ng·h/mL

**Q.** What about the Kp ([4]; 150 mg/kg, AUCLes/AUCplasma, lesion (type I), single 150 mg/kg oral dose of PZA) of the same compound?
**A.** 1.28

**Q.** What about the Kp [4, 17] of the same compound?
**A.** 0.52

**Q.** And the Kp [4, 18]?
**A.** 0.75

**Q.** What about the Cmax ([4]; 150 mg/kg, lesion (caseous necrotic granuloma, type I), single 150 mg/kg oral dose of PZA) of the same compound?
**A.** 12500 ng/g

**Q.** And the Cmax [4, 19]?
**A.** 14200 ng/mL

**Q.** What about the Cmax [4, 20] of the same compound?
**A.** 8300 ng/g

**Q.** And the Cmax [4, 21]?
**A.** 9000 ng/g

**Q.** And the half-life [4, 24]?
**A.** 726 min

**Q.** And the half-life [4, 23]?
**A.** 144 min

**Q.** What about the half-life [4, 20] of the same compound?
**A.** 234 min

**Q.** And the half-life [4, 21]?
**A.** 308 min

**Q.** And the Tmax [4, 24]?
**A.** 1 h

**Q.** And the Tmax [4, 19]?
**A.** 0.75 h

**Q.** And the Tmax [4, 20]?
**A.** 1 h

**Q.** And the Tmax [4, 21]?
**A.** 1 h

**Q.** And the AUC8h ([5]; lesion (type I))?
**A.** 75.1 µg·h/g

**Q.** And the AUC8h ([5]; uninvolved lung)?
**A.** 30.4 µg·h/g

**Q.** What about the AUC8h ([5]; whole lung) of the same compound?
**A.** 43.9 µg·h/g

**Q.** And the “accumulation within THP-1 cells” value [8]?
**A.** accumulated to a very low degree

**Q.** And the AUC8h ([7]; lesion (type III))?
**A.** 99.5 µg·h/g

**Q.** What about the AUC8h ([7]; uninvolved lung) of the same compound?
**A.** 39.0 µg·h/g

**Q.** And the AUC8h ([7]; whole lung)?
**A.** 53.7 µg·h/g
